We go through three compounds from paper PMC9414551 (Pharmaceuticals, 2022).

The structures appear in SMILES notation. pKd: −log10 of the molar value.

For test [1], the target named is T1, NR1-2D NMDAR (Homo sapiens, UniProt O15399+Q05586). The test is described as follows: Whole-cell automated patch-clamp (QPatch) in 1 mM Mg2+. Format: cell-based. Set-up: host or cells: CHO (CHO-hN1-h2D), tetracycline-induced expression. The conditions noted are these: 1 mM MgCl2, 10 μM L-glutamate, 10 μM glycine. How it is done:
(§1) Data were obtained in automated patch-clamp platform. […] Statistical results of one-way analysis of variance (ANOVA) followed by Tukey’s multiple comparisons test also reported p < 0.05 (*), p < 0.01 (**), p < 0.001 (***), and p < 0.0001 (****). Glu is glutamate.
(§2) For QPatch experiments, cells were grown in T-flasks first at 37 °C, 5% CO2 for 3 to 4 h, then at 30 °C, 5% CO2 for 18 to 24 h in DMEM/F12 medium with added 500 μM ketamine and 10 μg/mL tetracycline (except for NR1-2B-CHO cells) without additional antibiotics. Cells were manually detached from the culture dish and automatically dispensed in QPatch wells with extracellular solution in the presence of 1 mM Mg^2+ and 500 μM ketamine.
(§3) Holding potential was −80 mV, and voltage protocol included a depolarizing 2-s step pulse to +60 mV to check the quality of the seal and cell NMDAR expression level, followed by a 2-s ramp-up to holding potential.

Test [2] has as its target T2, NR1-2A NMDAR (Homo sapiens, UniProt Q05586+Q12879). The test is described as above. The test is classed as cell-based. The conditions noted are these: 1 mM MgCl2, 10 μM L-glutamate, 10 μM glycine. More on the design: host or cells: CHO (CHO-hNR1-h2A), tetracycline-induced expression. How it is done: as §1, §2, §3
The target of test [3] is T3, NR1-2B NMDAR (Homo sapiens, UniProt Q05586+Q13224). The description is as above. The test is classed as cell-based. Set-up: host or cells: CHO (CHO-hNR1-h2B), constitutive expression. The conditions noted are these: 1 mM MgCl2, 10 μM L-glutamate, 10 μM glycine. How it is done:
as §1, §2, §3

In test [4] the target is T4, NR1-2C NMDAR (Homo sapiens, UniProt Q05586+Q14957). The test is described as above. The test is classed as cell-based. More on the design: host or cells: CHO (CHO-hN1-h2C), tetracycline-induced expression. The settings on record: 1 mM MgCl2, 10 μM L-glutamate, 10 μM glycine. How it is done: as §1, §2, §3
T4 sequence (Q14957 20-1233, other chains not shown): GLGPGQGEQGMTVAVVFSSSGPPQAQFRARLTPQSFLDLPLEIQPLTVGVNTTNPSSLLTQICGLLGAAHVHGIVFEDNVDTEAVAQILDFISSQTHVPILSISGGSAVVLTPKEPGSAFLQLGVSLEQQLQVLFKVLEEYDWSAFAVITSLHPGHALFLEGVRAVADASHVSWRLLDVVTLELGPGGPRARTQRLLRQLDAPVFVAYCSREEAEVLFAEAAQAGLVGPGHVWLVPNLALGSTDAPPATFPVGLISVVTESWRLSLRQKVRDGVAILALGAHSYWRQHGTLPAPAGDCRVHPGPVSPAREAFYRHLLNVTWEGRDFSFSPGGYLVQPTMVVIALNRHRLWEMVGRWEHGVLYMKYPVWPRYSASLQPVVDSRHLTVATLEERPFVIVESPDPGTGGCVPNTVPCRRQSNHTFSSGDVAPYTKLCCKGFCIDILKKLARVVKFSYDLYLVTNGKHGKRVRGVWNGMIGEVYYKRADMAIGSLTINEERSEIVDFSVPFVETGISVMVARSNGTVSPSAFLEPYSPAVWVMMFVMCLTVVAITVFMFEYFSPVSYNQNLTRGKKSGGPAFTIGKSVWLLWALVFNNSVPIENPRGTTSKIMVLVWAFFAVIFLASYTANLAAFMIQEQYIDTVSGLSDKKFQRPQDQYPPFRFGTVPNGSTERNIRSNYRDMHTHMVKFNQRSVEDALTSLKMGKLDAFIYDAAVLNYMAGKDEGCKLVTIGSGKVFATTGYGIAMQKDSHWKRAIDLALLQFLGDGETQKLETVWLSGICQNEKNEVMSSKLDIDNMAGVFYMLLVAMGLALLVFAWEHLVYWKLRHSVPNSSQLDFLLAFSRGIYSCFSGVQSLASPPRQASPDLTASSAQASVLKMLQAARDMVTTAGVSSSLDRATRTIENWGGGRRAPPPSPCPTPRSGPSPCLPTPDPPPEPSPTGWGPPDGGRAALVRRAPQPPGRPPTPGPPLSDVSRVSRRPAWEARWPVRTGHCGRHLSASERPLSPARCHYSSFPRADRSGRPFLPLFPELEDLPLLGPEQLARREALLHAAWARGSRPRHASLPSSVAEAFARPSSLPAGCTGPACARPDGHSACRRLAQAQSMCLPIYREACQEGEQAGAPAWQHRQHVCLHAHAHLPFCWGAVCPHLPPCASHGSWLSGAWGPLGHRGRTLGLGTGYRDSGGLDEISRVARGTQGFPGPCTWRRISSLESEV
Test [5] addresses NMDAR. Set-up: method as in Eurofins Panlabs Discovery Services Taiwan. The conditions noted are these: assay parameter of the contract laboratory; ref Eurofins Panlabs Discovery Services Taiwan; read-out: Kd of the radioligand; cited from earlier work.
Test [6] deals with T1, NR1-2D NMDAR. The test is described as follows: cell-based. Format: cell-based. Set-up: host or cells: CHO (CHO-hN1-h2D), tetracycline-induced expression.
In test [7] the target is T4, NR1-2C NMDAR. The test is described as follows: cell-based. The test is classed as cell-based. More on the design: host or cells: CHO (CHO-hN1-h2C), tetracycline-induced expression.
Test [8] concerns the target T2, NR1-2A NMDAR. The test is described as follows: cell-based. More on the design: host or cells: CHO (CHO-hNR1-h2A), tetracycline-induced expression. The test is classed as cell-based.
Test [9] has as its target T3, NR1-2B NMDAR. The test is described as follows: cell-based. Format: cell-based. Set-up: host or cells: CHO (CHO-hNR1-h2B), constitutive expression.

T1 sequence (O15399 28-1336, other chains not shown): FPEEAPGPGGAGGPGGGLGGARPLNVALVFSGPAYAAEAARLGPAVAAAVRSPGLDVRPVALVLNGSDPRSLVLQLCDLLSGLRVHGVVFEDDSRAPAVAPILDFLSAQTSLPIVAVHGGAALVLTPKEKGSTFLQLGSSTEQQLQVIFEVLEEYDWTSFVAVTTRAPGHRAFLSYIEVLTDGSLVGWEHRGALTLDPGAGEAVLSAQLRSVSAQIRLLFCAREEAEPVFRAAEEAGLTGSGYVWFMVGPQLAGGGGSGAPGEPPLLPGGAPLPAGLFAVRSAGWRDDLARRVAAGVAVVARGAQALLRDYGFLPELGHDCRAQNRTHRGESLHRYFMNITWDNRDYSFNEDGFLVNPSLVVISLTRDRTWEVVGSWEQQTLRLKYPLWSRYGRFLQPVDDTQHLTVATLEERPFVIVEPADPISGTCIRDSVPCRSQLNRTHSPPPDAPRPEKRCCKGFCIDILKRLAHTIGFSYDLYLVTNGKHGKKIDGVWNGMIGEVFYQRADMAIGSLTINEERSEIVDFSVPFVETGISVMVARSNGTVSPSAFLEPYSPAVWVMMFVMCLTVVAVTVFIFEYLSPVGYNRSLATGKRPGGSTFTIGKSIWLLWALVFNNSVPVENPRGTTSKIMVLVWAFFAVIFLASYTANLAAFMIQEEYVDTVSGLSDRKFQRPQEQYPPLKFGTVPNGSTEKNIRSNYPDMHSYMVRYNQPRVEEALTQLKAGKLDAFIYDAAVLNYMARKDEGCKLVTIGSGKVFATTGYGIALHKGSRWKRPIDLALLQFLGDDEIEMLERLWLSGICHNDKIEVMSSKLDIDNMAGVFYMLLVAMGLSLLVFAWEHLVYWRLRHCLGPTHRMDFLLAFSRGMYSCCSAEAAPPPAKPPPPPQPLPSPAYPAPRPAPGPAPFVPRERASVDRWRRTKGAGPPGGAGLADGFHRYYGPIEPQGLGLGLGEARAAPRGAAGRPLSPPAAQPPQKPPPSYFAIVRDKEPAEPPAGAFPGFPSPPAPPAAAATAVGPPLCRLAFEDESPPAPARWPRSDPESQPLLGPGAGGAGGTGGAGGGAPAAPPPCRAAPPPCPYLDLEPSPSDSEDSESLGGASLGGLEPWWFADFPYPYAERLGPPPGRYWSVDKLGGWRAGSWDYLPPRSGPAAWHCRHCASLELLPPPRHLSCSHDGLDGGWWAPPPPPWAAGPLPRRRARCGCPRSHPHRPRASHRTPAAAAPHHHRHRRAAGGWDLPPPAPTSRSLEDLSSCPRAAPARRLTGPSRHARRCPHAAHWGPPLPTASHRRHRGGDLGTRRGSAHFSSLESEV
T3 sequence (Q13224 27-1484, other chains not shown): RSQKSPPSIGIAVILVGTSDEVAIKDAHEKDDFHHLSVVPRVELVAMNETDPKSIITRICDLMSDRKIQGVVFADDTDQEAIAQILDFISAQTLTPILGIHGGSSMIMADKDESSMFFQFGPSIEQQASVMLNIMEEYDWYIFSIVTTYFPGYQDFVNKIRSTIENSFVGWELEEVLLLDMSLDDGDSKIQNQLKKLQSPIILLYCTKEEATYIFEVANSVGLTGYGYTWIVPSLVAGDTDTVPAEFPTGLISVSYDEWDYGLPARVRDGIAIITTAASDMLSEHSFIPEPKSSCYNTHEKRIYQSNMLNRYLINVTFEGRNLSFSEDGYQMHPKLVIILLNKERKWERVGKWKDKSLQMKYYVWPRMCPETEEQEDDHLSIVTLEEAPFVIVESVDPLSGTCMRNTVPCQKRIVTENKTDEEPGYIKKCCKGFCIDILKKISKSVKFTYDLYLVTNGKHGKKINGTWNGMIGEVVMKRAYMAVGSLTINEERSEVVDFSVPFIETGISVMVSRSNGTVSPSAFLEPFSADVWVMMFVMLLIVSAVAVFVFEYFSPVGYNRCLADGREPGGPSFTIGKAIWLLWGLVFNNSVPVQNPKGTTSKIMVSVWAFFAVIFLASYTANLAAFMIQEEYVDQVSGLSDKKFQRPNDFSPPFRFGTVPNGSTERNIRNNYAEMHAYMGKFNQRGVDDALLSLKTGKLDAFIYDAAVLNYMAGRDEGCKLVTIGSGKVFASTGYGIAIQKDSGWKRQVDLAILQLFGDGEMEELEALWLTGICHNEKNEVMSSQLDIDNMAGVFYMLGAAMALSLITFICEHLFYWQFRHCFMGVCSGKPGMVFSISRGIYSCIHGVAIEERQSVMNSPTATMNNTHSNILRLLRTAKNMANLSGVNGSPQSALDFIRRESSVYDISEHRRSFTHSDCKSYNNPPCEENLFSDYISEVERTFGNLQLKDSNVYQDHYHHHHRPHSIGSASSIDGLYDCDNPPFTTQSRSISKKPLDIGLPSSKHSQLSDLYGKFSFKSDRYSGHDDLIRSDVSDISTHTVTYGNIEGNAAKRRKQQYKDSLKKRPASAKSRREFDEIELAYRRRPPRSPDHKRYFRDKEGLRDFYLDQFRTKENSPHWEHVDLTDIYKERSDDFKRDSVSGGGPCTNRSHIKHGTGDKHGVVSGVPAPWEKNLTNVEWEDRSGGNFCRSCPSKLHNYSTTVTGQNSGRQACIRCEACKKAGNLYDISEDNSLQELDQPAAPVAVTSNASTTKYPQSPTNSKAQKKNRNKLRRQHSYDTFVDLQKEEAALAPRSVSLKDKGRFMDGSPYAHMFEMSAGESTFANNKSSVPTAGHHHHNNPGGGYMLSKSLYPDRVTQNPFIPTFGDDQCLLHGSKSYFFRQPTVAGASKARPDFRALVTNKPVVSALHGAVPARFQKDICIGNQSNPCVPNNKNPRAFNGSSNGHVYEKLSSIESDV

Turning to `[Cl-].[Cl-].[Mg+2]` [MgCl2], the “current at −60 mV normalized to −30 mV current (100%)” value in [1] amounted to 55 ± 1.8%; in [2], 24 ± 2.4%; in [3], 26 ± 1.8%; in [4] it was 64 ± 5.6%.

On to `c1csc(C2(N3CCCCC3)CCCCC2)c1` [[^3H]TCP], for which, in [5], the pKd was 8.08.

For `N[C@@H](CCC(=O)O)C(=O)O` [L-glutamate], the “L-glutamate Max. (maximal asymptote), alone” value in [6] amounted to 105%; in test [7], 106%; in test [8] it was 106%; in test [9] it was 111%.
